Test results published in PMC11110727, “Exploiting thiol-functionalized benzosiloxaboroles for achieving diverse substitution patterns – synthesis, characterization and biological evaluation of promising antibacterial agents” (RSC Medicinal Chemistry, 2024).

Biological target: T1, S. aureus MRSA LeuRS (Staphylococcus aureus, UniProt P67513)
T1 construct: The LeuRS gene from MRSA (PW-71) was amplified by PCR; made in house; host or cells: E. coli BL21(DE3)pLys
Test: In vitro aminoacylation (enzyme inhibition) assay
Type: biochemical
Experimental: We have undertaken research devoted to determining the most probable mechanism of antibacterial action. […] Considering structural similarity to benzoxaboroles we assumed that benzosiloxaboroles are active through this mechanism. Our working hypothesis was supported by the fact that benzosiloxaboroles are rather bacteriostatic than bactericidal,[26,27] which is consistent with the specificity of the OBORT mechanism. The enzyme inhibition assay was performed for compound 20 as it features high activity against S. aureus MRSA strains and the respective favorable SI = 19.5 (Table 5). […] We obtained S. aureus MRSA LeuRS in the E. coli expression system. From 400 mL culture, approximately 20 mg of 6× His tagged LeuRS (with a molecular mass of 92.3 kDa) was purified to more than 90% homogeneity, which was confirmed by sodium dodecylsulfate-polyacrylamide gel electrophoresis (SDS-PAGE; Fig. S2, ESI ^†). Next, we used an in vitro aminoacylation assay to investigate the ability of 20 to inhibit S. aureus MRSA LeuRS activity consistent with affecting the transfer of the ^14C-radiolabeled leucine to a total tRNA. […] (residual activity 30.8% at 25 μM).
The LeuRS gene from MRSA (PW-71) was amplified by PCR using the following primers: 5′-[…]-3′ and 5′-[…]-3′. The amplified leuRS was digested with BamHI and NotI and ligated into pETDuet-1 vector (Novagen) which carries an N-terminal His tag. After sequencing, the pETDuet1-leuRS plasmid was transformed into E. coli BL21(DE3)pLys cells, which were then grown overnight in 20 mL of Luria–Bertani (LB) medium containing 100 μg mL^−1 ampicillin and 30 μg mL^−1 chloramphenicol. Then the overnight culture was inoculated into 400 mL of Super Broth medium containing ampicillin and chloramphenicol at the same concentration, and the cells were grown until the OD600 reached 0.6. […] The protein concentration in the final solution was 2.86 mg mL^−1 (determined by the Bradford method and bovine serum albumin as a standard).[78] […]

T1 sequence (P67513 whole entry): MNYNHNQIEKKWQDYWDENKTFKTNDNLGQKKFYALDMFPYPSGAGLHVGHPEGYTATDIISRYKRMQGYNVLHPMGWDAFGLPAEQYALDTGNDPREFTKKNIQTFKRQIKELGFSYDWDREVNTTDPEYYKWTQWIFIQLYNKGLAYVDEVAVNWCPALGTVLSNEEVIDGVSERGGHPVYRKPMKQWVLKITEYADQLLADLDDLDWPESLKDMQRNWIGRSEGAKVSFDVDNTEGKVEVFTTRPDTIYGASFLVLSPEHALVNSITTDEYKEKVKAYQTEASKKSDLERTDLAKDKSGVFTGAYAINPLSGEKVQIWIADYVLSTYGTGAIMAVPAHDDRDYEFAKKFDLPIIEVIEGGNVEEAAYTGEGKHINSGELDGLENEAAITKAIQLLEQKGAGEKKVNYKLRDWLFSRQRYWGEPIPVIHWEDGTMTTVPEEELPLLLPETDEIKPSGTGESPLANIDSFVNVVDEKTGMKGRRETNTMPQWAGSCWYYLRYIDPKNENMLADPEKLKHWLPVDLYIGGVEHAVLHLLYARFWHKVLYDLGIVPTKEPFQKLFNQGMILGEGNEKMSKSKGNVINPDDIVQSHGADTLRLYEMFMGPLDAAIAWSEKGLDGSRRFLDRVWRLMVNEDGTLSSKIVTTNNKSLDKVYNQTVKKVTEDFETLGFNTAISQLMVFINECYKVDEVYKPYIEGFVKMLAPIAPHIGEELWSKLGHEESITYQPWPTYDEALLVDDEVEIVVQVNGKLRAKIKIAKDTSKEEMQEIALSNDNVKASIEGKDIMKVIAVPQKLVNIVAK

## C[Si]1(C)OB(O)c2cc(F)c(SCCS(=O)(=O)c3ccccc3)c(F)c21 [Compound 20, 5,7-Difluoro-1,1-dimethyl-6-((2-(phenylsulfonyl)ethyl)thio)benzo[c][1,2,5]oxasilaborol-3(1H)-ol]
  IC50: > 200 µM
read-out: residual activity of S. aureus MRSA LeuRS
  remaining activity at 25 µM: 92.9%
